Target: T1, full-length (FL) wild-type (WT) NicA2 (Pseudomonas putida, UniProt F8G0P2)
T1 construct: full length, C-terminal 6xHis (pET28a), E. coli BL21(DE3); FAD-containing; the assays say only WT NicA2, full length inferred from cloning section
T1 sequence (F8G0P2 1-482): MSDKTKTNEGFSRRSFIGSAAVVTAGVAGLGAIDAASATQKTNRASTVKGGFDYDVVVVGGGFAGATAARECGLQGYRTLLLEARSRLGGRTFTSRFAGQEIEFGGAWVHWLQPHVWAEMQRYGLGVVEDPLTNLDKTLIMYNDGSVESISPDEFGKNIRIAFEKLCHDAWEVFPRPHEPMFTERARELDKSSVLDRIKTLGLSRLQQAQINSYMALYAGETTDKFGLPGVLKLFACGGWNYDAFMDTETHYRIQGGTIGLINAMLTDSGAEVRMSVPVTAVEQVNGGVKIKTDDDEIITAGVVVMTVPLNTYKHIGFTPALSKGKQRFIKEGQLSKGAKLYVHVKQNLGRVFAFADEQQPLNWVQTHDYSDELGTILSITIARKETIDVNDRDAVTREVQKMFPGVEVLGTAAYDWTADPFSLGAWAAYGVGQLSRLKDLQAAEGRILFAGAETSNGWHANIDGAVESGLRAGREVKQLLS
Test: Ni-NTA removal of enzyme, GC of free versus total product
Type: binding
Details: 25 °C, 1.5 h, equimolar nicotine; product formed in situ; construct (full length or 21-482) not stated

## CNCCCC(=O)c1cccnc1 [pseudooxynicotine]
  Ni-NTA removal of enzyme, GC of free versus total product: only one-fourth of the PN produced in the reaction system was released to solution by NicA2
